From patent US20210253557A1, “SUBSTITUTED TRIAZOLE DERIVATIVES AND USES THEREOF” (Bayer Pharma Aktiengesellschaft, priority 2017, published 2021)
Where a name gives a salt, the structure may show the parent alone.

What was measured:
human V1a receptor = target: T1, human V1a receptor (Homo sapiens, UniProt P37288); assay: Cellular in vitro assay for determining vasopressin receptor activity (V1a, aequorin luminescence); assay type: cell-based; details: for IC50: CHO cell line transfected with the human V1a receptor, [Arg8]-vasopressin at EC50 concentration, read-out: IC50 hV1a; for ratio IC50 hV2/hV1a: selectivity ratio of IC50 hV2 to IC50 hV1a
T1 construct: expressed in transfected cells; host or cells: CHO K1 (ATCC), also stably transfected with a modified aequorin
T1 sequence (P37288 whole entry): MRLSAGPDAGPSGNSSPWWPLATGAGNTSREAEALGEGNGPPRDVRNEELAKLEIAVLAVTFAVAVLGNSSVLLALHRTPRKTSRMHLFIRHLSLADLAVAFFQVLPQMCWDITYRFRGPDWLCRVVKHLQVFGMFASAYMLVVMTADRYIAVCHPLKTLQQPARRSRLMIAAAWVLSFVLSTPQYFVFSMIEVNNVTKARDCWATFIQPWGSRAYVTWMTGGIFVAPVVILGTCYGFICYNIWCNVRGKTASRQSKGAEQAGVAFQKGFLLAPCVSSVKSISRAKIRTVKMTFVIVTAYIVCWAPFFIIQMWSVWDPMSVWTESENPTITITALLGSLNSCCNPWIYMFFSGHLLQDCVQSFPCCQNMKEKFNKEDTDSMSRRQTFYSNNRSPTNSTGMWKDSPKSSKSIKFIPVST
Procedure: (§1) B-1. Cellular In Vitro Assay for Determining Vasopressin Receptor Activity
(§2) The identification of agonists and antagonists of the V1a and V2 vasopressin receptors from humans, rats and dogs as well as the quantification of the activity of the compounds of the invention is carried out using recombinant cell lines. These cell lines originally derive from a hamster's ovary epithelial cell (Chinese Hamster Ovary, CHO K1, ATCC: American Type Culture Collection, Manassas, Va. 20108, USA). The test cell lines constitutively express the human, rat or dog V1a or V2 receptors. In case of the Gαq-coupled V1a receptors, cells are also stably transfected with a modified form of the calcium-sensitive photoproteins aequorin (human and rat V1a) or obelin (dog V1a), which, after reconstitution with the cofactor coelenterazine, emit light when there are increases in free calcium concentrations [Rizzuto R, Simpson A W, Brini M, Pozzan T, Nature 358, 325-327 (1992); Illarionov B A, Bondar V S, Illarionova V A, Vysotski E S, Gene 153 (2), 273-274 (1995)]. The resulting vasopressin receptor cells react to stimulation of the recombinantly expressed V1a receptors by intracellular release of calcium ions, which can be quantified by the resulting photoprotein luminescence. The Gs-coupled V2 receptors are stably transfected into cell lines expressing the gene for firefly luciferase under control of a CRE-responsible promoter. Activation of V2 receptors induces the activation of the CRE-responsive promoter via cAMP increase, thereby inducing the expression of firefly luciferase. The light emitted by photoproteins of V1a cell lines as well as the light emitted by firefly luciferase of V2 cell lines corresponds to the activation or inhibition of the respective vasopressin receptor. The bioluminescence of the cell lines is detected using a suitable luminometer [Milligan G, Marshall F, Rees S, Trends in Pharmacological Sciences 17, 235-237 (1996)].
Vasopressin V1a receptor cell lines:
On the day before the assay, the cells are plated out in culture medium (DMEM/F12, 2% FCS, 2 mM glutamine, 10 mM HEPES, 5 μg/ml coelenterazine) in 384-well microtiter plates and kept in a cell incubator (96% humidity, 5% v/v CO2, 37° C.). On the day of the assay, test compounds in various concentrations are placed for 10 minutes in the wells of the microtiter plate before the agonist [Arg^8]-vasopressin at EC50 concentration is added. The resulting light signal is measured immediately in a luminometer.
(§3) Table 1A below lists individual IC50 values for the compounds of the invention (including racemic mixtures as well as separated enantiomers) that were obtained from cell lines transfected with the human V1a or V2 receptor: […]

human V2 receptor = target: T2, human V2 receptor (Homo sapiens, UniProt P30518); assay: Cellular in vitro assay for determining vasopressin receptor activity (V2, CRE-luciferase); assay type: cell-based; details: CHO cell line transfected with the human V2 receptor; [Arg8]-vasopressin at EC50 concentration; read-out: IC50 hV2
T2 construct: expressed in transfected cells; host or cells: CHO K1 (ATCC) expressing firefly luciferase under a CRE-responsive promoter
T2 sequence (P30518 whole entry): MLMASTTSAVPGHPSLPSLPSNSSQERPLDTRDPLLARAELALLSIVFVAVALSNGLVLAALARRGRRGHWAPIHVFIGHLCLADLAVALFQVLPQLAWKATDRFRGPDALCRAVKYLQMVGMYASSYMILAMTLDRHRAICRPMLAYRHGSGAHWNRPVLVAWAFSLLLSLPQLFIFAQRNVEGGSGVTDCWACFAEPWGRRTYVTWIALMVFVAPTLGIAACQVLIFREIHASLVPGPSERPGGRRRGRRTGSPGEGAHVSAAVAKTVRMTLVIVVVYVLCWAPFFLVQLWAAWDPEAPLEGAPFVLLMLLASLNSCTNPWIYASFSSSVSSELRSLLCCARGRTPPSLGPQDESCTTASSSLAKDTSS
Procedure: as §1, §2
Vasopressin V2 receptor cell lines:
On the day before the assay, the cells are plated out in culture medium (DMEM/F12, 2% FCS, 2 mM glutamine, 10 mM HEPES) in 384-well microtiter plates and kept in a cell incubator (96% humidity, 5% v/v CO2, 37° C.). On the day of the assay, test compounds in various concentrations and the agonist [Arg^8]-vasopressin at EC50 concentration are added together to the wells, and plates are incubated for 3 hours in a cell incubator. Upon addition of the cell lysis reagent Triton™ and the substrate luciferin, luminescence of firefly luciferase is measured in a luminometer.
as §3

IC50 (human V1a receptor) [nM]	ratio IC50 hV2/hV1a (human V1a receptor)	IC50 (human V2 receptor) [nM]	Structure (SMILES)
12.5	32.8	410	CC(=O)NC(CO)c1nc(Cn2nc(-c3ccc(Cl)cc3)n(C[C@H](O)C(F)(F)F)c2=O)nn1-c1ncccc1OC(F)(F)F (mixture of isomers) [Example 120, N-[1-{3-({3-(4-Chlorophenyl)-5-oxo-4-[(2S)-3,3,3-trifluoro-2-hydroxypropyl]-4,5-dihydro-1H-1,2,4-triazol-1-yl}methyl)-1-[3-(trifluoromethoxy)pyridin-2-yl]-1H-1,2,4-triazol-5-yl}-2-hydroxyethyl]acetamide]
34	2.2	74.5	CNc1ccncc1-n1nc(Cn2nc(-c3ccc(Cl)cc3)n(C[C@H](O)C(F)(F)F)c2=O)nc1C(C)N (mixture of isomers) [Example 124, 2-({5-[1-Aminoethyl]-1-[4-(methylamino)pyridin-3-yl]-1H-1,2,4-triazol-3-yl}methyl)-5-(4-chlorophenyl)-4-[(2S)-3,3,3-trifluoro-2-hydroxypropyl]-2,4-dihydro-3H-1,2,4-triazol-3-one hydrochloride]
64	9.3	595	CNc1ccncc1-n1nc(Cn2nc(-c3ccc(Cl)cc3)n(C[C@H](O)C(F)(F)F)c2=O)nc1C(C)NC(C)=O (mixture of isomers) [Example 125, N-[1-{3-({3-(4-Chlorophenyl)-5-oxo-4-[(2S)-3,3,3-trifluoro-2-hydroxypropyl]-4,5-dihydro-1H-1,2,4-triazol-1-yl}methyl)-1-[4-(methylamino)pyridin-3-yl]-1H-1,2,4-triazol-5-yl}ethyl]acetamide hydrochloride]
94.5	22.8	2150	CC(N)c1nc(Cn2nc(-c3ccc(Cl)cc3)n(C[C@H](O)C(F)(F)F)c2=O)nn1-c1ncccn1 (mixture of isomers) [Example 128, 2-({5-[1-Aminoethyl]-1-(pyrimidin-2-yl)-1H-1,2,4-triazol-3-yl}methyl)-5-(4-chlorophenyl)-4-[(2S)-3,3,3-trifluoro-2-hydroxypropyl]-2,4-dihydro-3H-1,2,4-triazol-3-one hydrochloride]
190	8.2	1550	CC(=O)NC(C)c1nc(Cn2nc(-c3ccc(Cl)cc3)n(C[C@H](O)C(F)(F)F)c2=O)nn1-c1ncccn1 (mixture of isomers) [Example 129, N-{1-[3-({3-(4-Chlorophenyl)-5-oxo-4-[(2S)-3,3,3-trifluoro-2-hydroxypropyl]-4,5-dihydro-1H-1,2,4-triazol-1-yl}methyl)-1-(pyrimidin-2-yl)-1H-1,2,4-triazol-5-yl]ethyl}acetamide]
21	127.9	2680	CN1C(=O)CCC1c1nc(Cn2nc(-c3ccc(Cl)cc3)n(C[C@H](O)C(F)(F)F)c2=O)nn1CCC(F)(F)F (mixture of isomers) [Example 130, 5-(4-Chlorophenyl)-2-({5-[1-methyl-5-oxopyrrolidin-2-yl]-1-(3,3,3-trifluoropropyl)-1H-1,2,4-triazol-3-yl}methyl)-4-[(2S)-3,3,3-trifluoro-2-hydroxypropyl]-2,4-dihydro-3H-1,2,4-triazol-3-one]
1.1	1.6	1.76	COc1ccccc1-n1nc(Cn2nc(-c3ccc(Cl)cc3)n(C[C@H](O)C(F)(F)F)c2=O)nc1C(C)OC(N)=O (single isomer, unassigned) [Example 39]
5.86	1.1	6.35	COc1ccccc1-n1nc(Cn2nc(-c3ccc(Cl)cc3)n(C[C@H](OC(N)=O)C(F)(F)F)c2=O)nc1C(C)OC(N)=O (single isomer, unassigned) [Example 40]
2.01	4.8	9.69	COc1ccccc1-n1nc(Cn2nc(-c3ccc(Cl)cc3)n(C[C@H](O)C(F)(F)F)c2=O)nc1C(C)OC(N)=O (single isomer, unassigned) [Example 41]
1.08	6.8	7.37	COc1ccccc1-n1nc(Cn2nc(-c3ccc(Cl)cc3)n(C[C@H](OC(N)=O)C(F)(F)F)c2=O)nc1C(C)OC(N)=O (single isomer, unassigned) [Example 42]
3.09	1.4	4.2	CC(N)c1nc(Cn2nc(-c3ccc(Cl)cc3)n(C[C@H](O)C(F)(F)F)c2=O)nn1-c1cccc(F)c1 (single isomer, unassigned) [Example 54]
18	1.4	26	CC(N)c1nc(Cn2nc(-c3ccc(Cl)cc3)n(C[C@H](O)C(F)(F)F)c2=O)nn1-c1cccc(F)c1 (single isomer, unassigned) [Example 55]
0.45	6.3	2.83	CC(N)c1nc(Cn2nc(-c3ccc(Cl)cc3)n(C[C@H](O)C(F)(F)F)c2=O)nn1-c1ccccc1Cl (single isomer, unassigned) [Example 61]
0.97	11.7	11.4	CC(N)c1nc(Cn2nc(-c3ccc(Cl)cc3)n(C[C@H](O)C(F)(F)F)c2=O)nn1-c1ccccc1Cl (single isomer, unassigned) [Example 62]
2.05	5.3	10.8	CC(=O)NC(C)c1nc(Cn2nc(-c3ccc(Cl)cc3)n(C[C@H](O)C(F)(F)F)c2=O)nn1-c1ccccc1Cl (single isomer, unassigned) [Example 65]
3.75	14.0	52.5	CC(=O)NC(C)c1nc(Cn2nc(-c3ccc(Cl)cc3)n(C[C@H](O)C(F)(F)F)c2=O)nn1-c1ccccc1Cl (single isomer, unassigned) [Example 66]
0.97	4.6	4.5	CC(NS(C)(=O)=O)c1nc(Cn2nc(-c3ccc(Cl)cc3)n(C[C@H](O)C(F)(F)F)c2=O)nn1-c1ccccc1Cl (single isomer, unassigned) [Example 68]
0.7	12.4	8.65	CC(NS(C)(=O)=O)c1nc(Cn2nc(-c3ccc(Cl)cc3)n(C[C@H](O)C(F)(F)F)c2=O)nn1-c1ccccc1Cl (single isomer, unassigned) [Example 69]
0.7	19.7	13.8	CN1C(=O)CCC1c1nc(Cn2nc(-c3ccc(Cl)cc3)n(C[C@H](O)C(F)(F)F)c2=O)nn1-c1ccccc1Cl (single isomer, unassigned) [Example 71]
0.67	9.9	6.63	CN1C(=O)CCC1c1nc(Cn2nc(-c3ccc(Cl)cc3)n(C[C@H](O)C(F)(F)F)c2=O)nn1-c1ccccc1Cl (single isomer, unassigned) [Example 72]
5.35	3.4	18	CC(NC(=O)C(F)(F)F)c1nc(Cn2nc(-c3ccc(Cl)cc3)n(C[C@H](O)C(F)(F)F)c2=O)nn1-c1ccccc1Cl (single isomer, unassigned) [Example 74]
4.2	14.1	59	CC(NC(=O)C(F)(F)F)c1nc(Cn2nc(-c3ccc(Cl)cc3)n(C[C@H](O)C(F)(F)F)c2=O)nn1-c1ccccc1Cl (single isomer, unassigned) [Example 75]
